Reference: patent publication US10336707B2, “Heterocyclic derivatives modulating activity of certain protein kinases” (EUDENDRON S.R.L., priority 2014, dated 2019)

How the values were obtained:
Format in all cases: biochemical
Conditions in all cases: ATP 0.3 μM
ALKL1196M (GST-His-tag) = target: T1, ALKL1196M (GST-His-tag) (Homo sapiens, UniProt Q9UM73, L1196M); experiment: Radiometric protein kinase assay (33PanQuinase Activity Assay), ALK L1196M
T1 construct: either as full-length or enzymatically active fragments; purchased ProQinase GmbH (Freiburg, Germany)
T1 sequence (Q9UM73 19-1620 L1196M): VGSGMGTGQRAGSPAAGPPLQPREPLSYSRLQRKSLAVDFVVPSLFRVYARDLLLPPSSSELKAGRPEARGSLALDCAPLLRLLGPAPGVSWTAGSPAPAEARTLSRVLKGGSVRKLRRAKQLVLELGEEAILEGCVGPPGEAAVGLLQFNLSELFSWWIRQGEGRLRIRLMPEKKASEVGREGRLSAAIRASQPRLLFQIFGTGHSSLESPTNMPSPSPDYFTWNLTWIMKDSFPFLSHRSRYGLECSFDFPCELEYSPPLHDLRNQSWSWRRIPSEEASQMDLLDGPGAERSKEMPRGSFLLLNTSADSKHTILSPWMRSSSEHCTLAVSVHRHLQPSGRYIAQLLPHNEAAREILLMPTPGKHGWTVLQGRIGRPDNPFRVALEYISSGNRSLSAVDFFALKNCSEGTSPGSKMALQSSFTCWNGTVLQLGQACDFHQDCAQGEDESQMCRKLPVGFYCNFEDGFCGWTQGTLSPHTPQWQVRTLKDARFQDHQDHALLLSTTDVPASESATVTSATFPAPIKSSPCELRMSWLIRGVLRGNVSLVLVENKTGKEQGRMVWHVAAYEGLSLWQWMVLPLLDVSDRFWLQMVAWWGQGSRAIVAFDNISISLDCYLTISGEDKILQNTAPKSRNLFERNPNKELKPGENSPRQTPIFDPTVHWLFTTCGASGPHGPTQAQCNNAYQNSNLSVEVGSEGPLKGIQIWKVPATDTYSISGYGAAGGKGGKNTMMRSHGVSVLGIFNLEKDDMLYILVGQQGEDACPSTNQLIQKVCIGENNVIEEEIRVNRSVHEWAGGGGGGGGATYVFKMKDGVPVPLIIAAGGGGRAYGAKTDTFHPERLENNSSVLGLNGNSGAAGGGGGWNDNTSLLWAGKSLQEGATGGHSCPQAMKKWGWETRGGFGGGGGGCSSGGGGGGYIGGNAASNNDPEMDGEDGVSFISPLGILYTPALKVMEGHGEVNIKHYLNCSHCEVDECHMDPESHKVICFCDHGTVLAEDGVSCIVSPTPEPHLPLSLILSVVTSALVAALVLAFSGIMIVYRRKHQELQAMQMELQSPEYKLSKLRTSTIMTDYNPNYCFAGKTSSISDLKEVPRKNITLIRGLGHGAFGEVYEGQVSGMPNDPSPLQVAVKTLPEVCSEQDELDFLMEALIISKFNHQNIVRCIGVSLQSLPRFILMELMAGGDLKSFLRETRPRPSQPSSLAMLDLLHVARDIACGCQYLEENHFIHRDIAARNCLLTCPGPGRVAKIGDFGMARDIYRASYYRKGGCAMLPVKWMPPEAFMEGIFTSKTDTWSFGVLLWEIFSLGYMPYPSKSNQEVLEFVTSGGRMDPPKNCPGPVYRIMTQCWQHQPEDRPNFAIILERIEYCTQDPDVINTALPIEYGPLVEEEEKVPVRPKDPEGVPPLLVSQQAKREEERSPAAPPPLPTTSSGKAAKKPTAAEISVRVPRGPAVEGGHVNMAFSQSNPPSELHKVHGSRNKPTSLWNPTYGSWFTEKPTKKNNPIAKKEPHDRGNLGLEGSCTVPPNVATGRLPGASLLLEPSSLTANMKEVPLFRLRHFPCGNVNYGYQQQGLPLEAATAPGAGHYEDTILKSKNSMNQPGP
Procedure: (§1) A proprietary radiometric protein kinase assay (33PanQuinase® Activity Assay) developed by ProQuinase GmbH (Freiburg, Germany) was used for measuring the kinase activity of selected protein kinases. All assays were performed in FlashPlates™ wells 96 Perkin Elmer (Boston, Mass., USA) in a reaction volume of 50 μl. The reaction mixture was obtained in 4 steps in the following order: • 1. 10 μl of a solution of non-radioactive ATP in water; • 2. 25 μl of assay buffer/[γ-^33P]-ATP mixture • 3. 5 μl of test sample in 10% DMSO • 4. 10 μl of enzyme/substrate mixture
(§2) All protein kinases provided by ProQinase were expressed in Sf9 insect cells or in E. coli as recombinant GST-fusion proteins or His-tagged proteins, either as full-length or enzymatically active fragments. […] Kinases from external vendors (CAR=Carna Biosciences Inc.; INV=Life Technologies (Invitrogen Corporation); MIL=Merck-Millipore (Millipore Corporation), were expressed, purified and quality-controlled by virtue of the vendors readings.
(§3) A stock solution of compound of formula (I) was diluted to 5×10-04M/100% DMSO. […] Incorporation of 33Pi (counting of “cpm”) was determined with a microplate scintillation counter (Microbeta, Wallac). […]
(§4) Based on each 10 corresponding residual activities, IC50 values were calculated using Prism 5.04 for Windows (Graphpad, San Diego, Calif.). […]

EPHB2 = target: T2, EPHB2 (Homo sapiens, UniProt P29323); experiment: Radiometric protein kinase assay (33PanQuinase Activity Assay), EPHB2
T2 construct: either as full-length or enzymatically active fragments; purchased ProQinase GmbH (Freiburg, Germany)
T2 sequence (P29323 19-1055): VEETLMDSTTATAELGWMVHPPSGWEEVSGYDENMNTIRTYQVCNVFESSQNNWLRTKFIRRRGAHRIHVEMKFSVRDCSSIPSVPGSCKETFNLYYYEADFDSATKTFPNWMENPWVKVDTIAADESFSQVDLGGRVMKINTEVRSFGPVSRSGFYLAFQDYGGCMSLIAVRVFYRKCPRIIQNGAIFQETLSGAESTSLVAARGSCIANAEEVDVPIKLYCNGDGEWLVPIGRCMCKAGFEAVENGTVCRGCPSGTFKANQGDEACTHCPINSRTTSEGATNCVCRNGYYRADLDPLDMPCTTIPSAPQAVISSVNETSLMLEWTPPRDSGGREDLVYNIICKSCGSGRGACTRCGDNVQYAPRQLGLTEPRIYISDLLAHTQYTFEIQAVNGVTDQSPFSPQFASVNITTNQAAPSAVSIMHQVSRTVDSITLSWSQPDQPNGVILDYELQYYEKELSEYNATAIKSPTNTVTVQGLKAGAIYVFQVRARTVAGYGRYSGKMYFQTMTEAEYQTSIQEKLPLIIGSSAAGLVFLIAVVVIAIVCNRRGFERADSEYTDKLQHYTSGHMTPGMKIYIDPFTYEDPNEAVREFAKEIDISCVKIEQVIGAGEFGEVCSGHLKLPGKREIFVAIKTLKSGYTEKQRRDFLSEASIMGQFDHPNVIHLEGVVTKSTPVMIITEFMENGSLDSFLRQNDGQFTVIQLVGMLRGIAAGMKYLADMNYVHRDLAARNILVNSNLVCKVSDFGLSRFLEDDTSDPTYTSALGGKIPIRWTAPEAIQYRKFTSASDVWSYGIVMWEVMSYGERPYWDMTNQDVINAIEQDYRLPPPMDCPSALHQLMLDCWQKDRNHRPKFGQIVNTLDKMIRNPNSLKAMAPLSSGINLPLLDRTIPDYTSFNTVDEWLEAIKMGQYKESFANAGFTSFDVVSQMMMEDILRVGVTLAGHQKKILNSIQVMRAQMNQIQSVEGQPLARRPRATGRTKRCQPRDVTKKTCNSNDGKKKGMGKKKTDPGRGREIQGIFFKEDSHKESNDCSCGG
Procedure: as §1, §2, §3, §4

FYN = target: T3, FYN (Homo sapiens, UniProt P06241); experiment: Radiometric protein kinase assay (33PanQuinase Activity Assay), FYN
T3 construct: either as full-length or enzymatically active fragments; purchased ProQinase GmbH (Freiburg, Germany)
T3 sequence (P06241 whole entry, the tested form may be a part): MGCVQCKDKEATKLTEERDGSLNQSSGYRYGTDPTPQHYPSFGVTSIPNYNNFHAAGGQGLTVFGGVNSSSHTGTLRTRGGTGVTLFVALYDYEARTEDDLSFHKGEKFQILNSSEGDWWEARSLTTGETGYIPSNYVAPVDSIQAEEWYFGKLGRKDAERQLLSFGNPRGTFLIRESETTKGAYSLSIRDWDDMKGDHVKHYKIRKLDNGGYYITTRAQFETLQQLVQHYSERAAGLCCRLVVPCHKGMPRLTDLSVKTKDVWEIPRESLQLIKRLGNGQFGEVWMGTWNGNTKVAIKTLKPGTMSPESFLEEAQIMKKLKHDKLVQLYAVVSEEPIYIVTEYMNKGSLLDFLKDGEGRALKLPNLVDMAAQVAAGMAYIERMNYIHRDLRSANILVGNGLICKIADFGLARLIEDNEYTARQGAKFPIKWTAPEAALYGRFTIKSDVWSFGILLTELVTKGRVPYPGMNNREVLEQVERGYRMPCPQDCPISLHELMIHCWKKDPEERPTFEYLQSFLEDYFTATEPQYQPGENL
Procedure: as §1, §2, §3, §4

How did the IC50 (ALKL1196M (GST-His-tag)) turn out when `CN1CCN(c2ccc(C(=O)Nc3n[nH]c4cc(-c5ccc(O)cc5)c(Cc5cc(F)cc(F)c5)cc34)c(NC3CCOCC3)c2)CC1` [Example 3, N-[5-[(3,5-difluorophenyl)methyl]-6-(4-hydroxyphenyl)-1H-indazol-3-yl]-4-(4-methylpiperazin-1-yl)-2-(tetrahydropyran-4-ylamino)benzamide] was run?
The IC50 was 45 nM.

And the IC50 (EPHB2)?
The IC50 was 90 nM.

And the IC50 (FYN)?
Its IC50 is 34 nM.
